# Reference: patent US7223783B2, “Indolinone derivatives” (Theravance, Inc., priority 2001, dated 2007)
# Read-outs that look alike come from different tables or passages of the source.
# Legend:
# Flt-3 ITD = target: T1, Flt-3 ITD (Homo sapiens, UniProt P36888, INS600HVDFREYEYD); assay: Proliferation and viability assay (MTT), cytotoxicity assay; type: cell-based; conditions: MV4-11 AML cells expressing Flt-3 ITD, 48 hours, highest concentration tested 10 μm
# T1 construct: MV4-11 cells express Flt-3 ITD; endogenous in cells; host or cells: MV4-11
# T1 sequence (P36888 with tags, fused parts or gaps INS600HVDFREYEYD): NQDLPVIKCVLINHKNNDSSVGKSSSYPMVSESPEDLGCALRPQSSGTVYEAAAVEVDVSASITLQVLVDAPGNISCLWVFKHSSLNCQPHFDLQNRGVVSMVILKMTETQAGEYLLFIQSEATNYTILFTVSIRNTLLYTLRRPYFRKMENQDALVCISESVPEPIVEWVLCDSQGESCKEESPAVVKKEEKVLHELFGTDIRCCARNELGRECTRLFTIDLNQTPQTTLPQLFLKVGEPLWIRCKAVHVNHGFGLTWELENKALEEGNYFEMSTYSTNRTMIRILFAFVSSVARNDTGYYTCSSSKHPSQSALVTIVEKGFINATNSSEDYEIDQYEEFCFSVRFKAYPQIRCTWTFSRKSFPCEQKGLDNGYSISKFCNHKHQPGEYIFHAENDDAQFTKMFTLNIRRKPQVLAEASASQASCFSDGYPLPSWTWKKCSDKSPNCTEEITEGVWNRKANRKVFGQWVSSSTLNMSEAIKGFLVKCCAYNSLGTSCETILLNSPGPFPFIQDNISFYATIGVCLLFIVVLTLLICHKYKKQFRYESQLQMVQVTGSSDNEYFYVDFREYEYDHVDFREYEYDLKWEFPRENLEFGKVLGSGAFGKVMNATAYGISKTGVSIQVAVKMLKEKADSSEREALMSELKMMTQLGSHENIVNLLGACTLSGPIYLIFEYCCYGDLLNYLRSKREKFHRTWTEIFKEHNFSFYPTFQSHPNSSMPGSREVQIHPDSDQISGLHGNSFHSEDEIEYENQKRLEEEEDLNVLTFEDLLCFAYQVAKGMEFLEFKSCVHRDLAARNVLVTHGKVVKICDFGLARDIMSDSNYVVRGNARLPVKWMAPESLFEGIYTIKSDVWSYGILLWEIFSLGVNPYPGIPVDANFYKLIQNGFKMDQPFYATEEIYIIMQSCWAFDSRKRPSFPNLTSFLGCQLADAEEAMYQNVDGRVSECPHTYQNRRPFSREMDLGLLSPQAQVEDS
# [1] = Pharmacokinetics in male Sprague Dawley rats; type: in vivo, rat
# Description: To evaluate pharmacokinetics, male Sprague Dawley rats (CD strain, Charles River Laboratories, Wilmington, Mass.) were dosed with test compounds via intravenous (IV) administration, at 1 mg/kg concentration, and oral (PO) administration, at 10 mg/kg concentration. Blood samples were collected from animals pre-dose, and at 2, 5, 15, and 30 minutes, and at 1, 2, 4, 6, 8, and 24 hours post-dose. Plasma concentrations were determined by liquid chromatography-mass spectrometry (LC-MS) (MDS SCIEX API 4000, Applied Biosystems, Foster City, Calif.). Standard pharmacokinetic parameters were assessed by non-compartmental methods using the WinNonlin Version 3.2 software package (Pharsight, Mountain View, Calif.). Oral bioavailability was determined as the ratio of the area under the curve (AUC) in the graph of plasma concentration versus time for PO administration to the corresponding quantity for IV administration.
# [2] = test system: receptor tyrosine kinases PDGFR, c-Kit, VEGFR and Flt-3; assay: One or more of the FLIPR, MTT and IP/Western whole cell assays; type: cell-based
# Description: In order to determine the IC50 of test compounds against the VEGFR in the FLIPR assay, HUVECs (Walkersville, Md.) were used. For the determination of IC50s against the PDGFR, a HEK cell line were used that expresses the human PDGFR. 40–50000 cells per well were plated in a 96 well plate. The cells were incubated for 3–4 hours to adhere to the plate. Subsequently, the cells were washed twice in FLIPR buffer (1×HBS, 2 mM CaCl, 10 mM HEPES, pH7.4, 2.5 mM Probenecid, 0.1% BSA). After the second wash 50 μL of the Ca^2+ sensitive dye FLUO-3 (FLUO-3 (AM) TEF Labs, 50 μg in 10 mL FLIPR buffer) was added to the remaining 50 μL buffer in each well. After loading the cells for one hour, the cells were washed twice and the test compounds were added in 50 μL as a 2× solution to the 50 μL of buffer in each well. The cells were incubated with the compounds for 30 minutes and then VEGF (40 ng/mL, BioSource International) for the VEGFR or PDGF (40 ng/mL, BioSource International) for the PDGFR was added. The change in fluorescence intensity was measured in a Fluorometric Image Plate Reader (FLIPR) (Molecular Devices).
# The inhibition of mutant Flt-3 ITD is expected to affect the proliferation and viability of AML cells with this mutation. […] The plate was incubated at 37 degrees Celsius for 24 hours and, then, the optical density of the wells was determined spectrophotometrically at 550 nm. […]
# VEGFR = target: T2, VEGFR (Homo sapiens, UniProt P35968); assay: Ca2+ release assay (FLIPR) in HUVECs; type: cell-based; conditions: VEGF 40 ng/mL, highest concentration tested 1 μm
# T2 construct: against the VEGFR in the FLIPR assay, HUVECs (Walkersville, Md.) were used; endogenous in cells; host or cells: HUVEC
# T2 sequence (P35968 20-1356): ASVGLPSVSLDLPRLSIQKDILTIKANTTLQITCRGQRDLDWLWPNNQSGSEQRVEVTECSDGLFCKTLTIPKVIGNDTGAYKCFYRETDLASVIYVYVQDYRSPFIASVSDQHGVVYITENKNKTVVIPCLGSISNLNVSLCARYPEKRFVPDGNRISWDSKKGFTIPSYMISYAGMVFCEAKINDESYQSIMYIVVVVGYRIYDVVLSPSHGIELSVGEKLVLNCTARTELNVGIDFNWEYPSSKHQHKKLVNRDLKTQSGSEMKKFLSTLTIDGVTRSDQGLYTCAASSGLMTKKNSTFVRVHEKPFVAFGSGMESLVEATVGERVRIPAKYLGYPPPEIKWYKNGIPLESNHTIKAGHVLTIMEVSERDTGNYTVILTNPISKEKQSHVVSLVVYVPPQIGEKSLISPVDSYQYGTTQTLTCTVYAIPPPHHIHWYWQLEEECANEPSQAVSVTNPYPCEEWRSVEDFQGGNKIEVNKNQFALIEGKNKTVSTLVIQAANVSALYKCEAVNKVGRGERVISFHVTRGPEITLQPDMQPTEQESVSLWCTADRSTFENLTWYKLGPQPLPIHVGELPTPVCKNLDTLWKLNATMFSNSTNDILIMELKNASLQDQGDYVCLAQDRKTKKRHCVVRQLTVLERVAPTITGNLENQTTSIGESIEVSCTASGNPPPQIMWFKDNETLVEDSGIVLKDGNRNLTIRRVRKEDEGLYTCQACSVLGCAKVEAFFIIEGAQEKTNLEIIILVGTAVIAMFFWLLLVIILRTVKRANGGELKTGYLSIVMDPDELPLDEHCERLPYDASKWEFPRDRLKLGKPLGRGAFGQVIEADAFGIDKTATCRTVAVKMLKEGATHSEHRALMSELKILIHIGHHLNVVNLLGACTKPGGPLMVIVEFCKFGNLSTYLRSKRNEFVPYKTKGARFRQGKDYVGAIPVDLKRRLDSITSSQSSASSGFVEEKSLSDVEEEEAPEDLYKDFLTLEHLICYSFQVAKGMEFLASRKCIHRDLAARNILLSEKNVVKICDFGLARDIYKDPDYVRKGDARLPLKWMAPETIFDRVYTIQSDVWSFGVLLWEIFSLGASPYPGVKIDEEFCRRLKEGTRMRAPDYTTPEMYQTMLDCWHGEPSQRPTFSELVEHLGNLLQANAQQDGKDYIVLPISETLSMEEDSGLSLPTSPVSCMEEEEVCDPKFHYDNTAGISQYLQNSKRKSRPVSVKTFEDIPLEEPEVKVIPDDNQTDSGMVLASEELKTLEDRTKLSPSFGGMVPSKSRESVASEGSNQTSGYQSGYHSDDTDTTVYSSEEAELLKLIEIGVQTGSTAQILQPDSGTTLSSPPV
# Solubility in water = type: physicochemical
# PDGFR [3] = target: T3, PDGFR (Homo sapiens, UniProt P09619); assay: Immunoprecipitation/Western (IP/Western) receptor autophosphorylation; type: cell-based; set-up: expressed in transfected cells; host or cells: HEK PDGFR cell line; conditions: Immunoprecipitation/Western (IP) assay, HEK PDGFR cell line; highest concentration tested 1 μm
# T3 sequence (P09619 33-1106): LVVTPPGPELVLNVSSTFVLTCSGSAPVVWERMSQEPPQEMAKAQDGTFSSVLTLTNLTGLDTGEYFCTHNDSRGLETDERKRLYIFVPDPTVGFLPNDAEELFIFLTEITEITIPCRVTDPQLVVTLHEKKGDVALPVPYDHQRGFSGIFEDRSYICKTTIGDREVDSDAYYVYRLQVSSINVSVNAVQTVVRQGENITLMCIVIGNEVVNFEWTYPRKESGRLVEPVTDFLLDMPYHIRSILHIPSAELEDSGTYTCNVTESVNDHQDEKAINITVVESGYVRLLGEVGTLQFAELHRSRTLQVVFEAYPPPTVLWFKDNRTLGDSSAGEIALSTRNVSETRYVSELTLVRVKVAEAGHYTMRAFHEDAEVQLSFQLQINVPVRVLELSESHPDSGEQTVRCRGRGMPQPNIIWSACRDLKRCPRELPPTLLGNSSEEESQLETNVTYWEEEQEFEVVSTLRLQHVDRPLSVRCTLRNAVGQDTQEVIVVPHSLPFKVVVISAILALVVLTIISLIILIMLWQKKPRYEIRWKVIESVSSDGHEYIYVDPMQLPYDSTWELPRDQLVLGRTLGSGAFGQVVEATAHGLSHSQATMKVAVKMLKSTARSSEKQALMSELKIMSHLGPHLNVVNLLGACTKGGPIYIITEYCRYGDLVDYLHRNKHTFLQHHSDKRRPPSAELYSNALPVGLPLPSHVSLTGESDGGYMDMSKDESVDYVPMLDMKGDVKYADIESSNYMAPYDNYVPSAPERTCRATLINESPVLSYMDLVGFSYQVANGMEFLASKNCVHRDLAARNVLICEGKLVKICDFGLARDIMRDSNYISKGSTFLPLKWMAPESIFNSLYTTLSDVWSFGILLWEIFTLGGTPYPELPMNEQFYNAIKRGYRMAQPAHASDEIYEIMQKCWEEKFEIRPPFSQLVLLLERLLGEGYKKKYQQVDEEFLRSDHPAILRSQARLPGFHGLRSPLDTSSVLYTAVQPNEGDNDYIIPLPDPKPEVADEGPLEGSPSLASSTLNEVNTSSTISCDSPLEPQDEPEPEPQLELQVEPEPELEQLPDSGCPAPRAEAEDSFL
# Description: Immunoprecipitation/Western (IP/Western)
# The binding of growth factors to receptor tyrosine kinases like Flt-3 or PDGFR leads to the autophosphorylation of the receptors. The inhibition of autophosphorylation is the objective pursued with kinase inhibitors. By performing an IP/Western experiment the level of receptor autophosphorylation can be assessed directly.
# 5×10^6 cells (HEK PDGFR cell line for PDGFR, HEK c-Kit for c-Kit, and THP-1, HL-60 or MV4-11 for Flt-3) were incubated for 30 minutes in 2.5 mL of culture media with a defined concentration of test compound. In order to stimulate receptor autophosphorylation, growth factor (PDGF, SCF, or Flt-3 ligand respectively, 50 ng/mL, Biosource International, Camarillo, Calif.) was added for 5 minutes. The cells were then centrifuged and lysed in 500 μL lysis buffer (50 mM Tris pH 7.4, 1% NP-40, 150 mM NaCl, 1 mM EDTA, 1 mM Na3V04). The lysate is centrifuged and 10 μL of antibody against the respective receptor was added to the supernatant (anti-PDGFR (P20), anti-c-Kit (C-19), and anti-Flt-3 (S18), Santa Cruz Biotechnology, Inc.). The immunocomplexes were isolated with Protein G beads (Sigma, St. Louis, Mo.) and PAGE was performed. A Western Blot was done using an antibody against phospho-tyrosine residues (4G10, Upstate Biotechnology, Lake Placid, N.Y.). The intensity of the phospho-tyrosine signal corresponding to various drug concentrations provides a way to determine the IC50 of the test compound for the inhibition of autophosphorylation.
# PDGFR [4] = target: T3, PDGFR; assay: Ca2+ release assay (FLIPR) in HEK cell line expressing human PDGFR; type: cell-based; set-up: expressed in transfected cells; host or cells: HEK; conditions: HEK cells expressing human PDGFR, PDGF 40 ng/mL
# [5] = upon oral and intravenous administration; cited from earlier work
# [6] = prior art statement; cited from earlier work
# Flt-3 = target: T4, Flt-3 (Homo sapiens, UniProt P36888); conditions: Abstract 497, O'Farrell et al., ASH 2001; cited from earlier work
# T4 sequence (P36888 27-993): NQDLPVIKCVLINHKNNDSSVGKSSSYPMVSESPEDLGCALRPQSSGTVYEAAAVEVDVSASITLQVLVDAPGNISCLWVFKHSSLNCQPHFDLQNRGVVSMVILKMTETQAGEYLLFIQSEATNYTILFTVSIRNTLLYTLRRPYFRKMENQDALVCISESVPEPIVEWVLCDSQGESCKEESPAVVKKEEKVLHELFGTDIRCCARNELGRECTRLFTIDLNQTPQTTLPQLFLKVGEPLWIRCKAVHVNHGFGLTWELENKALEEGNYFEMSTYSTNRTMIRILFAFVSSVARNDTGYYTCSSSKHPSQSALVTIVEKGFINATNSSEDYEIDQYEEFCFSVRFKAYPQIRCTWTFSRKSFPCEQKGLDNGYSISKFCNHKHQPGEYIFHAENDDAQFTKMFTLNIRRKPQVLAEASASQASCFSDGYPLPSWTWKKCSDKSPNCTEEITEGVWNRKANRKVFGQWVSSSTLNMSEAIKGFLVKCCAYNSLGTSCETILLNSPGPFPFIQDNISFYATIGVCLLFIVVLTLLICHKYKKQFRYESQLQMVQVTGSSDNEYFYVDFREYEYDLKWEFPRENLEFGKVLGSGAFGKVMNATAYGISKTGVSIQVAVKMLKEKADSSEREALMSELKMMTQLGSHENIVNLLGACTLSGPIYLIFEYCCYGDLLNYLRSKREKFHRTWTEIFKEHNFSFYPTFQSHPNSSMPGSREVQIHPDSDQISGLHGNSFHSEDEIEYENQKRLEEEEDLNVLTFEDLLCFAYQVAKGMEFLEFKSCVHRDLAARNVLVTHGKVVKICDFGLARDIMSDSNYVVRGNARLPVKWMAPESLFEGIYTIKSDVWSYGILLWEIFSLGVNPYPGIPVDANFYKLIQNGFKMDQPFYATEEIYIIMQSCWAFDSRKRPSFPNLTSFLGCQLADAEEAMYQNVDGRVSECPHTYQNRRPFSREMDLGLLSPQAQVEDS
Structure (SMILES),EC50 (Flt-3 ITD),Flt-3 EC50 (Flt-3 ITD),"bioavailability ([1]; male, Sprague-Dawley, rat, plasma, oral, 10 mg/kg)",Absorption on oral administration ([1]; oral administration),"Inhibition of one or more of PDGFR, c-Kit, VEGFR and Flt-3 [2]",IC50 (VEGFR),VEGFR IC50 (VEGFR),Solubility in water (Solubility in water),IC50 (PDGFR [3]),PDGFR IC50 (PDGFR [3]),IC50 (PDGFR [4]),PDGFR IC50 (PDGFR [4]),bioavailability [5],Solubility in water [6],Ability to inhibit the receptor tyrosine kinase Flt-3 (Flt-3)
"Cc1[nH]c(C=C2C(=O)Nc3ccccc32)c(C)c1CCC(=O)N1CCNCC1.O=C(O)C(F)(F)F [Example 1, 3-[3,5-dimethyl-4-(3-oxo-3-piperazin-1-yl-propyl)-1H-pyrrol-2-ylmethylene]-1,3-dihydroindol-2-one, trifluoroacetate]",240 nM,sub-micromolar activity,50.6%,excellent absorption,highly potent and selective inhibitor,20 nM,sub-micromolar activity,high solubility in water,30 nM,sub-micromolar activity,,,,,
"CCN1CCN(C(=O)CCc2c(C)[nH]c(C=C3C(=O)Nc4ccccc43)c2C)CC1.O=C(O)C(F)(F)F [Example 22, 3-[3,5-dimethyl-4-[3-oxo-3-(4-ethyl)piperazin-1-ylpropyl]-1H-pyrrol-2-ylmethylene]-1,3-dihydroindol-2-one, trifluoroacetate]",220 nM,sub-micromolar activity,,,,30 nM,sub-micromolar activity,,,,90 nM,sub-micromolar activity,,,
Cc1cc(C)c(/C=C2\C(=O)Nc3ccccc32)[nH]1 [SU5416],,,,,,,,,,,,,low bioavailability,poor solubility in water,
"Cc1[nH]c(C=C2C(=O)Nc3ccccc32)c(C)c1CCC(=O)O [SU6668, 3-[2,4-dimethyl-5-(2-oxo-1,2-dihydroindol-3-ylidenemethyl)-1H-pyrrol-3-yl]propionic acid, reference compound]",,No activity*,,,,,No activity**,,,No activity**^#,,,,,lack the ability
